Conditions: comparison with donepezil hydrochloride tablet

COc1cc2c(cc1OC)C(=O)C(CC1CCN(Cc3ccccc3)CC1)C2.O=S(=O)(O)O (stereo not shown) [Example 12, donepezil sulfate (1:1)]
Stability of tablets prepared from the salt, compared with the tablet prepared from the hydrochloride salt: practically identical to that of the tablet prepared from the hydrochloride salt
